Results: paper PMC8836234, “Salicylic Acid Is Required for Broad-Spectrum Disease Resistance in Rice” (International Journal of Molecular Sciences, 2022)

What was measured:
DMR6 = target: T1, DMR6 (Arabidopsis thaliana, UniProt Q9FLV0); test: LC-MS/MS product formation relative to wild type; format: biochemical; settings: 2-oxoglutarate, FeSO4, phosphate pH 6.8, 40 °C; 2,3- and 2,5-DHBA products
T1 construct: recombinant from E. coli BL21 (DE3), modified pGEX vector (GST purification), 3 x Myc at C-terminus; wild type has Y126, A283
T1 sequence (Q9FLV0 1-341): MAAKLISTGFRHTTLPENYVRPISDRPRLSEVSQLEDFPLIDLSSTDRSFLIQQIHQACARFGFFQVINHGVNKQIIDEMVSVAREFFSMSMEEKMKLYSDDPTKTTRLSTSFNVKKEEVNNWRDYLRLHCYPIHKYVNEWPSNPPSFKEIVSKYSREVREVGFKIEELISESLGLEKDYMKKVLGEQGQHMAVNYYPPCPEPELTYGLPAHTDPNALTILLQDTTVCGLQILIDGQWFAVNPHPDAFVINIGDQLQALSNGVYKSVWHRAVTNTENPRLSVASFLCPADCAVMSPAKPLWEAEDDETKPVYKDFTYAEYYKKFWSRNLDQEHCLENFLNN

OsSAH3 = target: T2, OsSAH3 (Oryza sativa, UniProt Q7XUN0); test: LC-MS/MS of […],5-DHBA formation, substrate inhibition fit; format: biochemical; settings: substrate inhibition constant, second site; 5-hydroxylation (2,5-DHBA product); 1 mM 2-oxoglutarate, 0.4 mM FeSO4, phosphate pH 6.8, 40 °C
T2 construct: gene Os04g0581100; recombinant from E. coli BL21 (DE3), modified pGEX vector (GST purification), 3 x Myc at C-terminus; wild type has F136, R138, I289, P292; gene on chromosome 4, tail-to-tail with OsSAH2
T2 sequence (Q7XUN0 1-352): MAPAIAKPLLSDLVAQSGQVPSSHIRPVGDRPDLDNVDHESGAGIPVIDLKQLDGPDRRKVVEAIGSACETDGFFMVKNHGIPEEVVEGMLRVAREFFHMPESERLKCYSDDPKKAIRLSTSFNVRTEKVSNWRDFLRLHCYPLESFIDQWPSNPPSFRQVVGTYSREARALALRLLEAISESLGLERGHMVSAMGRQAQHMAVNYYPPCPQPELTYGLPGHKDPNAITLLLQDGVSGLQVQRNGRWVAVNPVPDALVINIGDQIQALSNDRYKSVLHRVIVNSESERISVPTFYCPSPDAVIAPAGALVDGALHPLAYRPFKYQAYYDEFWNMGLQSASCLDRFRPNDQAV

OsSAH1 = target: T3, OsSAH1 (Oryza sativa, UniProt Q10SI2); test: as above; format: biochemical; settings: substrate inhibition constant, second site; 5-hydroxylation (2,5-DHBA product); 1 mM 2-oxoglutarate, 0.4 mM FeSO4, phosphate pH 6.8, 40 °C
T3 construct: gene Os03g0122300; recombinant from E. coli BL21 (DE3), modified pGEX vector (GST purification), 3 x Myc at C-terminus
T3 sequence (Q10SI2 1-342): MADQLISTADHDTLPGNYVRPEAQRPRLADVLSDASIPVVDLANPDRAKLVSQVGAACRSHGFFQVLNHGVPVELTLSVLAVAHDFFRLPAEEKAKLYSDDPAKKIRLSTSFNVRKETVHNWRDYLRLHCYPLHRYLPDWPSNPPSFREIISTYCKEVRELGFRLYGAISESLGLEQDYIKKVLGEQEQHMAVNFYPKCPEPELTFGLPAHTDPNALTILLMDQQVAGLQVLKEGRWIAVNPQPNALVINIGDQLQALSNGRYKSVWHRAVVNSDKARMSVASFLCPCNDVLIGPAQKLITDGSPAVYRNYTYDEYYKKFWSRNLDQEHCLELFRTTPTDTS

OsSAH2 [1] = target: T4, OsSAH2 (Oryza sativa, UniProt B9FC47); test: as above; format: biochemical; settings: substrate inhibition constant, second site; 5-hydroxylation (2,5-DHBA product); 1 mM 2-oxoglutarate, 0.4 mM FeSO4, phosphate pH 6.8, 40 °C
T4 construct: gene Os04g0581000; recombinant from E. coli BL21 (DE3), modified pGEX vector (GST purification), 3 x Myc at C-terminus; wild type has Y127, M282, A285; gene on chromosome 4, tail-to-tail with OsSAH3
T4 sequence (B9FC47 1-340): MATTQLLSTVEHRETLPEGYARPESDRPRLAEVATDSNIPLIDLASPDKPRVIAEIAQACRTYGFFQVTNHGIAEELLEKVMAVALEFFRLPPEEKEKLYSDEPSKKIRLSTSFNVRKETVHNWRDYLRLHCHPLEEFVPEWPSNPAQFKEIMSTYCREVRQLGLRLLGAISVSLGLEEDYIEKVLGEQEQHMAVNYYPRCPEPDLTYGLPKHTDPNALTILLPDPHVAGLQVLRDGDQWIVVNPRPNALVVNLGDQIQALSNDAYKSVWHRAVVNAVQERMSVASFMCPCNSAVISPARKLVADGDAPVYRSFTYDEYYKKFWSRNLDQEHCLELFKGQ

OsSAH2 [2] = target: T5, OsSAH2 (Oryza sativa, UniProt B9FC47, Y127F); test: LC-MS/MS product formation relative to wild type; format: biochemical; settings: 2-oxoglutarate, FeSO4, phosphate pH 6.8, 40 °C; 2,3- and 2,5-DHBA products
T5 construct: gene Os04g0581000; recombinant from E. coli BL21 (DE3), modified pGEX vector (GST purification), 3 x Myc at C-terminus; wild type has Y127, M282, A285; gene on chromosome 4, tail-to-tail with OsSAH3
T5 sequence (B9FC47 1-340 Y127F): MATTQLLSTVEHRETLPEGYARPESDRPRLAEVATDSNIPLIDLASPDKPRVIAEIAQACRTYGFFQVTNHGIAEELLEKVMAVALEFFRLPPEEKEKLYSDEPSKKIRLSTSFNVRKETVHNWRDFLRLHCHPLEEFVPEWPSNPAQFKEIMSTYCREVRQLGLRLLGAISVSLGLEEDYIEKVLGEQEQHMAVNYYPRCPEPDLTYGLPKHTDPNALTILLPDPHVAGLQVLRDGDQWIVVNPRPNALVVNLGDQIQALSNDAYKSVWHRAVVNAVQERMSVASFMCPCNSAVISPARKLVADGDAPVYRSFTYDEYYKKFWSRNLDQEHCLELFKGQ

OsSAH4 = target: T6, OsSAH4 (Oryza sativa, UniProt Q8W2X5); test: LC-MS/MS of […],5-DHBA formation, substrate inhibition fit; format: biochemical; settings: substrate inhibition constant, second site; 5-hydroxylation (2,5-DHBA product); 1 mM 2-oxoglutarate, 0.4 mM FeSO4, phosphate pH 6.8, 40 °C
T6 construct: gene F3H-2; recombinant from E. coli BL21 (DE3), modified pGEX vector (GST purification), 3 x Myc at C-terminus
T6 sequence (Q8W2X5 1-342): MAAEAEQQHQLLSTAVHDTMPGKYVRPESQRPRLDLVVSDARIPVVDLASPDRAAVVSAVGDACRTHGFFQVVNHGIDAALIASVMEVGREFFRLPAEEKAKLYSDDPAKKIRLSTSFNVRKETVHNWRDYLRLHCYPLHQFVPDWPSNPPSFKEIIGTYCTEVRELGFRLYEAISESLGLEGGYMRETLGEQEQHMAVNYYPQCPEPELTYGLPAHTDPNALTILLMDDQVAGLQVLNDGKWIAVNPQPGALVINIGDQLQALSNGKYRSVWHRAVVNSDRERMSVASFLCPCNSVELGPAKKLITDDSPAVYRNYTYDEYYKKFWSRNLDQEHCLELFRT

purified protein = substrate: O=C(O)c1ccccc1O; test: purified protein; format: biochemical, Oryza sativa; settings: 5-hydroxylation (2,5-DHBA product), 1 mM 2-oxoglutarate, 0.4 mM FeSO4, ascorbate, phosphate pH 6.8, 40 °C

Question: Which “LC-MS/MS product formation relative to wild type” value (DMR6) does the source give for `O=C(O)c1ccccc1O` [SA, 2-hydroxy benzoic acid] here?
Answer: The higher activity of DMR6 than that of OsSAH2 was also supported by these parameters

Question: And the “Ksi” value (OsSAH3)?
Answer: 365.12 ± 30.58 µM

Question: What about the “Ksi” value (OsSAH1) of the same molecule?
Answer: 27.13 ± 21.11 µM

Question: What about the “Ksi” value (OsSAH2 [1]) of the same molecule?
Answer: 2.14 ± 1.86 µM

Question: And the relative enzyme activity (OsSAH2 [2])?
Answer: OsSAH2^Y127F mutant showed a similar level of SA5H activity as that of OsSAH2

Question: What about the “Ksi” value (OsSAH4) of the same molecule?
Answer: 26.52 ± 10.71 µM

B1: OsSAH3 (Oryza sativa Japonica Group) (protein)
chain: MAPAIAKPLLSDLVAQSGQVPSSHIRPVGDRPDLDNVDHESGAGIPVIDLKQLDGPDRRKVVEAIGSACETDGFFMVKNHGIPEEVVEGMLRVAREFFHMPESERLKCYSDDPKKAIRLSTSFNVRTEKVSNWRDFLRLHCYPLESFIDQWPSNPPSFRQVVGTYSREARALALRLLEAISESLGLERGHMVSAMGRQAQHMAVNYYPPCPQPELTYGLPGHKDPNAITLLLQDGVSGLQVQRNGRWVAVNPVPDALVINIGDQIQALSNDRYKSVLHRVIVNSESERISVPTFYCPSPDAVIAPAGALVDGALHPLAYRPFKYQAYYDEFWNMGLQSASCLDRFRPNDQAV
notes: recombinant from E. coli BL21 (DE3), modified pGEX vector (GST purification), 3 x Myc at C-terminus; wild type has F136, R138, I289, P292; gene on chromosome 4, tail-to-tail with OsSAH2
Question: With B1 as the molecule, how does the Km (purified protein) read?
Answer: 197.08 ± 19.42 µM

Question: And the kcat (purified protein)?
Answer: 0.256 ± 0.0332 s⁻¹

Question: What about the kcat/Km (purified protein) of the same molecule?
Answer: 1290 M⁻¹ s⁻¹
